Details of data set [1]: method as in Lee et al., 2015. As to conditions: in vivo; ref Lee et al., 2015; cited from earlier work.
Data set [2] concerns CYP3A4/5. The settings on record: in vitro; ref Lee et al., 2015; cited from earlier work.
The next data set relates to P-gp. As to conditions: in vitro; ref Lee et al., 2015; cited from earlier work.
Data set [3] has as its system CYP3A4/5. The data set can be described thus: CYP3A4/5 phenotyping with midazolam as probe. As to conditions: patient, 8 days after hospital admission, concomitant atorvastatin 40 mg q.d. As for the experimental part: Midazolam was used as a probe to measure the joint activity of CYP3A4/5 as previously described ([Bosilkovska et al., 2014]). Phenotyping was performed 8 days after hospital admission with concomitant treatment of insulin, enoxaparin 60 mg b.i.d., atorvastatin 40 mg q.d.

For data set [4], the system named is CYP3A4/5. As to conditions: ref Bosilkovska et al., 2014, cited from earlier work.
In another data set the target is T1, Factor Xa (Homo sapiens, UniProt P00742).
T1 construct: purchased Hyphen Biomed, Neuville-Sur-Oise, France
The data set can be described thus: Anti-Xa activity, chromogenic assay (DiXal kit) in patient plasma. It counts as in vivo. The settings on record: patient on 20 mg q.d. The procedure:
Anti-Xa activity was measured with a chromogenic assay using the DiXal® kit (Hyphen Biomed, Neuville-Sur-Oise, France) and a BCS XP instrument (Siemens, Marburg, Germany). This method has a limit of detection of 10 ng/ml. No information is given by the manufacturer regarding the limit of quantification (LOQ). However, previous studies have shown a LOQ of 20–30 ng/ml ([Douxfils et al., 2013]). The accuracy and precision calculated from the quality controls (QCs) were 107.0 and 8.8%, respectively, ([Asmis et al., 2012]). An excellent correlation between this method and liquid chromatography-tandem mass spectrometry (LC-MS/MS) has been shown (Spearman correlation coefficient of 0.96) ([Douxfils et al., 2013]).

Data set [5] in a line: Rivaroxaban plasma concentrations by LC-MS/MS in the patient. It counts as in vivo, human. The procedure:
Rivaroxaban determination was performed using a fully validated LC-MS/MS method according to guidelines of the US Food and Drug Administration and the International Conference on Harmonization. The method was accurate and precise across the dynamic range of 0.5–1000 ng/ml. The LOQ was 0.5 ng/ml. The mean precision and accuracy, calculated from the QCs, were 10.2 and 112%, respectively.
A plasma sample of 40 μl was processed by protein precipitation extraction using acetonitrile (200 μL). Separation was performed on a C18 column (50 mm × 2.1 mm ID; 2.6 μm particle size) and under gradient conditions using formic acid 10 mM in water and formic acid 10 mM in acetonitrile. Detection was by tandem-MS in positive mode using a Qtrap API 6500 from AB sciex (Ontario, Canada) using rivaroxaban-d4 as internal standard (20 ng/ml).

The nature of data set [6]: Case report: laboratory testing at hospital admission under rivaroxaban. It counts as in vivo, human. The settings on record: 3 months on rivaroxaban 20 mg q.d., normal range 140–180 g/l.
On the set-up of data set [7]: method as in Mueck et al., 2014. As to conditions: ref Mueck et al., 2014, cited from earlier work.
The next data set relates to Mdr1a/Mdr1b/Bcrp. The arrangement: method as in Gong et al., 2013. As to conditions: 4 h after administration; ref Gong et al., 2013; cited from earlier work.
On the set-up of data set [8]: method as in Grillo et al., 2012. As to conditions: PBPK simulation, concurrent renal impairment plus erythromycin, elderly; ref Grillo et al., 2012; cited from earlier work.
On the set-up of data set [9]: method as in Moore et al., 2014. The settings on record: moderate renal impairment plus erythromycin vs normal renal function, rivaroxaban 10 mg alone; ref Moore et al., 2014; cited from earlier work.
Details of data set [10]: method as in Mueck et al., 2013. As to conditions: healthy volunteers, ref Mueck et al., 2013, cited from earlier work.
[11] abbreviates: with ketoconazole 200 mg q.d. vs rivaroxaban alone.
The mark [12] stands for this setting: with ketoconazole 400 mg q.d. vs rivaroxaban alone.

Here are results for 3 compounds from publication PMC5165251, “Rivaroxaban-Induced Hemorrhage Associated with ABCB1 Genetic Defect” (Frontiers in Pharmacology, 2016).

“Also recorded” adds a separate entry of the source. Where two headings read alike, the source gives them in different places.

T1 sequence (P00742 235-488 limits assumed): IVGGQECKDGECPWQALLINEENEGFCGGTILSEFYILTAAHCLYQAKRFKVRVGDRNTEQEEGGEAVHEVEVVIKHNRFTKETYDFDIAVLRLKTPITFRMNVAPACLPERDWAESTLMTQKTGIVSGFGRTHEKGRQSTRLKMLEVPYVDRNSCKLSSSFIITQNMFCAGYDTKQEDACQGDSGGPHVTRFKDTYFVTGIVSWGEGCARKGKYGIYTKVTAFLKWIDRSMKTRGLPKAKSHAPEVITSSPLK
T1 sequence (P00742 41-179 partner limits assumed): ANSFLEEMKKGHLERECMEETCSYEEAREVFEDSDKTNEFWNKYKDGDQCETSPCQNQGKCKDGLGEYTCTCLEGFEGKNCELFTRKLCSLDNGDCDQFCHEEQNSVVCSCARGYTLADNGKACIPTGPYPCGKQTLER

Turning to `CC(C)c1c(C(=O)Nc2ccccc2)c(-c2ccccc2)c(-c2ccc(F)cc2)n1CC[C@@H](O)C[C@@H](O)CC(=O)O` [atorvastatin], in [1], the “Impact on nifedipine pharmacokinetics” value is “no impact”. Moreover, the “Inhibition of CYP3A4/5 activity” value in the data set with CYP3A4/5 [2] is on record as “inhibited”. The “Inhibition of P-gp activity” value in the data set with P-gp is given as “not P-gp activity”.
Take `Cc1ncc2n1-c1ccc(Cl)cc1C(c1ccccc1F)=NC2` [midazolam]: the OH-midazolam/midazolam metabolic ratio in the data set with CYP3A4/5 [3] is 0.31; in the data set with CYP3A4/5 [4] (healthy volunteers in the presence of a CYP inhibitor (voriconazole)), 0.22; with CYP3A4/5 [4] (healthy volunteers without enzyme inhibitor/inducer) it was 0.50.
Consider `O=C(NC[C@H]1CN(c2ccc(N3CCOCC3=O)cc2)C(=O)O1)c1ccc(Cl)s1` [rivaroxaban], for which the Anti-Xa activity on Factor Xa (24 h after the last rivaroxaban dose) was determined as 231 ng/mL; at Factor Xa (48 h after the last rivaroxaban dose), 110 ng/mL; on Factor Xa (60 h after the last rivaroxaban dose), 81 ng/mL; on Factor Xa (72 h after the last rivaroxaban dose), 66 ng/mL; on Factor Xa (84 h after the last rivaroxaban dose), 66 ng/mL; at Factor Xa (96 h (4 days) after the last rivaroxaban dose) it was 34 ng/mL. Moreover, the Rivaroxaban plasma concentrations worked out at 88.3 ng/mL in data set [5] (48 h after the last rivaroxaban dose, patient on 20 mg q.d., LC-MS/MS) and 35.6 ng/mL in data set [5] (96 h (4 days) after the last rivaroxaban dose, patient on 20 mg q.d., LC-MS/MS). In addition, the half-life was 24 to 30 h in data set [5] (human, plasma, oral, 20 mg q.d. Patient, homozygous ABCB1 variant carrier, moderate acute renal failure, read-out: Estimated half-life) and 11 to 13 h in data set [7] (old patients). Besides, the concentration at 48 h in data set [5] (human, plasma, oral, 20 mg q.d., 48 h after the last rivaroxaban dose, patient on 20 mg q.d., LC-MS/MS) is 88 ng/mL. This compound also registered a concentration at 72 h in [5] (human, plasma, oral, 20 mg q.d., 72 h after the last rivaroxaban dose, patient on 20 mg q.d., LC-MS/MS) of 70.5 ng/mL. In [5] (human, plasma, oral, 20 mg q.d., 96 h (4 days) after the last rivaroxaban dose, patient on 20 mg q.d., LC-MS/MS), the concentration at 96 h worked out at 36 ng/mL. Besides, the “Estimated half-life relative to usually reported” value in data set [5] (patient vs usually reported half-life) was 2–3 times. Moreover, the Hemoglobin level in [6] was determined as 70 g/L. Moreover, in data set [7], the Oral bioavailability was 80–100%. In [7], the “Part of the dose eliminated as unchanged drug in the urine” value was “more than one third; also recorded: About one third”. Further, in the data set on Mdr1a/Mdr1b/Bcrp, the “Increase in plasma concentration, triple knockout vs wild type mice” value is 1.7 fold. The “Increase in rivaroxaban exposure” value in data set [8] is given as 2.5–3 fold. The figures for the “Increase in rivaroxaban AUC” value in data set [9], in data set [10] (setting [11]) and in [10] (setting [12]) were “approximately 99%”, 82% and 158%, respectively. Further, the figures for the “Increase in rivaroxaban Cmax” value in data set [9], in [10] (setting [11]) and in [10] (setting [12]) were ~64%, 53% and 72%, respectively.
